Patent publication US20200247800A1, “SUBSTITUTED BICYCLIC HETEROCYCLIC COMPOUNDS AS NADPH OXIDASE INHIBITORS” (Glenmark Pharmaceuticals S.A., priority 2017, published 2020)

Molecular target: T1, human NOX4 (Homo sapiens, UniProt Q9NPH5)
T1 construct: expressed in transfected cells; membrane fraction used
T1 sequence (Q9NPH5 1-578): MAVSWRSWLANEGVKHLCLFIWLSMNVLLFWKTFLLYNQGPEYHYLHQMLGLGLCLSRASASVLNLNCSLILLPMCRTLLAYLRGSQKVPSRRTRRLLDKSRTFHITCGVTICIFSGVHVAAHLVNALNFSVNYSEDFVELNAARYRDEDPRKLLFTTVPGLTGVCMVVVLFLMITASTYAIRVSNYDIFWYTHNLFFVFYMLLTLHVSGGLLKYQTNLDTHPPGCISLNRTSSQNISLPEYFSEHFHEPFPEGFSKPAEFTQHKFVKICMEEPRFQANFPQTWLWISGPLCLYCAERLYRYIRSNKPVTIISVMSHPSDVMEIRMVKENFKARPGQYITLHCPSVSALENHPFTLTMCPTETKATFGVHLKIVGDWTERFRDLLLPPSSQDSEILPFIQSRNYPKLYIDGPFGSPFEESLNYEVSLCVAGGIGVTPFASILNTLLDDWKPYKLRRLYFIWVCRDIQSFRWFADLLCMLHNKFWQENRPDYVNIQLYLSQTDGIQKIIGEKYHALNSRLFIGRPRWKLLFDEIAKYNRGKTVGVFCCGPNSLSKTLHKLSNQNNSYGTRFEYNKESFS
T1 sequence (P13498 1-195 partner): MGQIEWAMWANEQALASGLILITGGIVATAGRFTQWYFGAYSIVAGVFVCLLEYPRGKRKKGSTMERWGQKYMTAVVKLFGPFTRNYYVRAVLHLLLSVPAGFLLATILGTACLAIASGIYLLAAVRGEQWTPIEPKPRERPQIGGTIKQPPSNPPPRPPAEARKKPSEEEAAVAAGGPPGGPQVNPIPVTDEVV
Experiment: Cell free membrane based in vitro NOX4 assay: H2O2 production by membranes expressing human NOX4, measured with Amplex Red
Assay type: biochemical
Conditions: for inhibition at 1 µM: 1.0 μM compound, read-out: Percentage inhibition at 1.0 μM; for inhibition at 10 µM: 10.0 μM compound, read-out: Percentage inhibition at 10.0 μM; for IC50: class symbols
Method in brief: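 Membranes from HEK cells stably overexpressing human NOX4 were preincubated 20 min with inhibitor in pH 7.4 HEPES buffer containing HRP and Amplex Red, then NADPH was added. H2O2 was followed for 10 min by fluorescence (ex 544/em 590 nm). IC50 from nonlinear regression of % maximal uninhibited response.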

SMILES | inhibition at 1 µM | inhibition at 10 µM | IC50
CCc1nn(CCC(C)C)c2[nH]c(-c3c(F)cccc3F)c(O)c(=O)c12 [Example 180, 6-(2,6-Difluorophenyl)-3-ethyl-5-hydroxy-1-isopentyl-1H-pyrazolo[3,4-b]pyridin-4(7H)-one] | 100% | 100% | < 50 nM
CCc1nn(C)c2[nH]c(-c3cnc(-c4ccc(F)cc4F)s3)c(O)c(=O)c12 [Example 187, 6-(2-(2,4-Difluorophenyl)thiazol-5-yl)-3-ethyl-5-hydroxy-1-methyl-1H-pyrazolo[3,4-b]pyridin-4(7H)-one] | 77% | 77.8% | 100 to 150 nM
Cc1nn(CCN2CCN(C)CC2)c2[nH]c(-c3cccc(C(F)(F)F)c3F)c(O)c(=O)c12 [Example 178, 6-(2-fluoro-3-(trifluoromethyl)phenyl)-5-hydroxy-3-methyl-1-(2-(4-methylpiperazin-1-yl)ethyl)-1H-pyrazolo[3,4-b]pyridin-4(7H)-one] | 89% | – | > 150 nM
Cc1nn(C)c2[nH]c(-c3ccc(C(F)(F)F)cc3F)c(O)c(=O)c12 [Example 21, 6-[2-Fluoro-4-(trifluoromethyl)phenyl]-5-hydroxy-1,3-dimethyl-1,7-dihydro-4H-pyrazolo[3,4-b]pyridin-4-one] | 100% | 100% | > 150 nM
Cc1nn(C)c2[nH]c(-c3ccc(Cl)c(C(F)(F)F)c3)c(O)c(=O)c12 [Example 24, 6-[3-Chloro-3-(trifluoromethyl)phenyl]-5-hydroxy-1,3-dimethyl-1,7-dihydro-4H-pyrazolo[3,4-b]pyridin-4-one] | 88.9% | – | > 150 nM
Cn1nc(C(F)(F)F)c2c(=O)c(O)c(-c3ccccc3F)[nH]c21 [Example 41, 6-(2-Fluorophenyl)-5-hydroxy-1-methyl-3-(trifluoromethyl)-1,7-dihydro-4H-pyrazolo[3,4-b]pyridin-4-one] | 77.7% | 87.6% | > 150 nM
COc1ccc(-c2[nH]c3c(c(C(F)(F)F)nn3C)c(=O)c2O)cc1 [Example 53, 5-Hydroxy-6-(4-methoxyphenyl)-1-methyl-3-(trifluoromethyl)-1,7-dihydro-4H-pyrazolo[3,4-b]pyridin-4-one] | 90.5% | 84.6% | 100 to 150 nM
Cc1nn(CC(C)C)c2[nH]c(-c3c(F)cccc3F)c(O)c(=O)c12 [Example 108, 6-(2,6-Difluorophenyl)-5-hydroxy-1-isobutyl-3-methyl-1H-pyrazolo[3,4-b]pyridin-4(7H)-one] | 70.7% | 77.9% | 50 to 100 nM
CCc1nn(CCN2CCOCC2)c2[nH]c(-c3cccc(C(F)(F)F)c3F)c(O)c(=O)c12 [Example 164, 3-Ethyl-6-(2-fluoro-3-(trifluoromethyl)phenyl)-5-hydroxy-1-(2-morpholinoethyl)-1H-pyrazolo[3,4-b]pyridin-4(7H)-one] | – | – | > 150 nM
CCc1nn(CCS(C)(=O)=O)c2[nH]c(-c3c(F)cccc3F)c(O)c(=O)c12 [Example 218, 6-(2,6-Difluorophenyl)-3-ethyl-5-hydroxy-1-(2-(methylsulfonyl)ethyl)-1H-pyrazolo[3,4-b]pyridin-4(7H)-one] | 85.5% | 90.1% | 50 to 100 nM
O=c1c(O)c(-c2c(F)cccc2F)[nH]c2c1c(CO)nn2CC1CCOCC1 [Example 215, 6-(2,6-difluorophenyl)-5-hydroxy-3-(hydroxymethyl)-1-((tetrahydro-2H-pyran-4-yl)methyl)-1H-pyrazolo[3,4-b]pyridin-4(7H)-one] | 78.8% | 87.3% | 100 to 150 nM

More lines, now with the values ahead:

inhibition at 1 µM | inhibition at 10 µM | IC50 | SMILES
82.5% | 77.7% | 50 to 100 nM | CCc1nn(CCO)c2[nH]c(-c3c(F)cccc3F)c(O)c(=O)c12 [Example 203, 6-(2,6-Difluorophenyl)-3-ethyl-5-hydroxy-1-(2-hydroxyethyl)-1H-pyrazolo[3,4-b]pyridin-4(7H)-one]
95.9% | 96.1% | < 50 nM | Cc1nn(C)c2[nH]c(-c3cc(Cl)ccc3Cl)c(O)c(=O)c12 [Example 20, 6-(2,5-Dichlorophenyl)-5-hydroxy-1,3-dimethyl-1,7-dihydro-4H-pyrazolo[3,4-b]pyridin-4-one]
99.8% | 96.9% | 100 to 150 nM | CCn1nc(C)c2c(=O)c(O)c(-c3cccc(C(F)(F)F)c3F)[nH]c21 [Example 104, 1-Ethyl-6-[2-fluoro-3-(trifluoromethyl)phenyl]-5-hydroxy-3-methyl-1,7-dihydro-4H-pyrazolo[3,4-b]pyridin-4-one]
58.6% | 100% | > 150 nM | O=c1c(O)c(-c2ccccc2Cl)[nH]c2sc(C(F)(F)F)nc12 [Example 63, 5-(2-Chlorophenyl)-6-hydroxy-2-trifluoromethyl[1,3]thiazolo[5,4-b]pyridin-7(4H)-one]
100% | 100% | < 50 nM | Cc1nn(-c2ccc(F)c(F)c2)c2[nH]c(-c3ccccc3Cl)c(O)c(=O)c12 [Example 31, 6-(2-Chlorophenyl)-1-(3,4-difluorophenyl)-5-hydroxy-3-methyl-1,7-dihydro-4H-pyrazolo[3,4-b]pyridin-4-one]
88.1% | 92.1% | 50 to 100 nM | Cc1nn(C2CCOCC2)c2[nH]c(-c3c(F)cccc3F)c(O)c(=O)c12 [Example 128, 6-(2,6-Difluorophenyl)-5-hydroxy-3-methyl-1-(tetrahydro-2H-pyran-4-yl)-1,7-dihydro-4H-pyrazolo[3,4-b]pyridin-4-one]
86% | 71.8% | 50 to 100 nM | CCc1nn(CCN2CCOCC2=O)c2[nH]c(-c3ccccc3Cl)c(O)c(=O)c12 [Example 167, 4-(2-(6-(2-Chlorophenyl)-3-ethyl-5-hydroxy-4-oxo-4,7-dihydro-1H-pyrazolo[3,4-b]pyridin-1-yl)ethyl)morpholin-3-one]
94.6% | 91.3% | 50 to 100 nM | CCc1nn(CCCN2C[C@@H](C)O[C@@H](C)C2)c2[nH]c(-c3c(F)cccc3F)c(O)c(=O)c12 [Example 206, 6-(2,6-Difluorophenyl)-1-(3-((2R,6S)-2,6-dimethylmorpholino)propyl)-3-ethyl-5-hydroxy-1H-pyrazolo[3,4-b]pyridin-4(7H)-one]
96.4% | 95.5% | < 50 nM | CCc1nn(CCN2CCN(C)CC2)c2[nH]c(-c3c(F)cccc3F)c(O)c(=O)c12 [Example 166, 6-(2,6-Difluorophenyl)-3-ethyl-5-hydroxy-1-(2-(4-methylpiperazin-1-yl)ethyl)-1H-pyrazolo[3,4-b]pyridine-4(7H)-one]
74.4% | 86.5% | > 150 nM | COc1ccc(-c2[nH]c3c(c(C(F)(F)F)nn3C)c(=O)c2O)c(OC)c1 [Example 51, 6-(2,4-Dimethoxyphenyl)-5-hydroxy-1-methyl-3-(trifluoromethyl)-1,7-dihydro-4H-pyrazolo[3,4-b]pyridin-4-one]
68.8% | 100% | > 150 nM | Cc1noc2[nH]c(-c3ccccc3Cl)c(O)c(=O)c12 [Example 64, 6-(2-Chlorophenyl)-5-hydroxy-3-methyl[1,2]oxazolo[5,4-b]pyridin-4(7H)-one]
69.7% | 88.6% | > 150 nM | CCn1cnc2c(=O)c(O)c(-c3c(F)cccc3F)[nH]c21 [Example 101, 5-(2,6-Difluorophenyl)-3-ethyl-6-hydroxy-3H-imidazo[4,5-b]pyridin-7(4H)-one]
60.9% | 74.3% | > 150 nM | Cn1nc(C(F)(F)F)c2c(=O)c(O)c(-c3ccc(NS(C)(=O)=O)cc3F)[nH]c21 [Example 237, N-{3-Fluoro-4-[5-hydroxy-1-methyl-4-oxo-3-(trifluoromethyl)-4,7-dihydro-1H-pyrazolo[3,4-b]pyridin-6-yl]phenyl}methanesulfonamide]
100% | 100% | 50 to 100 nM | CCCn1nc(CO)c2c(=O)c(O)c(-c3c(F)cccc3F)[nH]c21 [Example 182, 6-(2,6-Difluorophenyl)-5-hydroxy-3-(hydroxymethyl)-1-propyl-1H-pyrazolo[3,4-b]pyridin-4(7H)-one]
81.8% | 85% | > 150 nM | CC(C)CN1CCN(Cc2nn(C)c3[nH]c(-c4c(F)cccc4F)c(O)c(=O)c23)CC1 [Example 214, 6-(2,6-Difluorophenyl)-5-hydroxy-3-((4-isobutylpiperazin-1-yl)methyl)-1-methyl-1H-pyrazolo[3,4-b]pyridin-4(7H)-one]
